Laboratory results from ChEMBL document CHEMBL4002623, “Synthesis and in vitro activity of dicationic indolyl diphenyl ethers as novel potent antibiotic agents against drug-resistant bacteria” (Bioorg Med Chem Lett, 2017).
Values after ≈ are worked out from the molar mass of the structure shown.

How the values were obtained:
[1] = test system: Enterococcus faecium; test: Antibacterial activity against vancomycin-sensitive Enterococcus faecium 09-10 by agar dilution method; type: functional
[2] = test system: Serratia marcescens; test: Antibacterial activity against Serratia marcescens 41002 by agar dilution method; type: functional
[3] = test system: Providencia rettgeri; test: Antibacterial activity against Providencia rettgeri ATCC 31052 by agar dilution method; type: functional
[4] = test system: Pseudomonas aeruginosa; test: Antibacterial activity against Pseudomonas aeruginosa PAO1 by agar dilution method; type: functional
[5] = test system: Proteus vulgaris; test: Antibacterial activity against Proteus vulgaris ATCC 29905 by agar dilution method; type: functional
[6] = test system: Klebsiella pneumoniae; test: Antibacterial activity against extended-spectrum beta-lactamase-positive Klebsiella pneumoniae ATCC 700603 by agar dilution method; type: functional
[7] = test system: Klebsiella pneumoniae; test: Antibacterial activity against extended-spectrum beta-lactamase-negative Klebsiella pneumoniae 7 by agar dilution method; type: functional
[8] = test system: Enterococcus faecalis; test: Antibacterial activity against vancomycin-sensitive Enterococcus faecalis ATCC 29212 by agar dilution method; type: functional
[9] = test system: Staphylococcus epidermidis; test: Antibacterial activity against methicillin-sensitive Staphylococcus epidermidis 09-9 by agar dilution method; type: functional
[10] = test system: Klebsiella pneumoniae; test: Antibacterial activity against extended-spectrum beta-lactamase-negative Klebsiella pneumoniae 09-8 by agar dilution method; type: functional
[11] = test system: Citrobacter freundii; test: Antibacterial activity against Citrobacter freundii ATCC 43864 by agar dilution method; type: functional
[12] = test system: Staphylococcus aureus; test: Antibacterial activity against methicillin-sensitive Staphylococcus aureus ATCC 29213 by agar dilution method; type: functional
[13] = test system: Klebsiella pneumoniae; test: Antibacterial activity against extended-spectrum beta-lactamase-positive Klebsiella pneumoniae 09-25 by agar dilution method; type: functional
[14] = test system: Enterococcus faecalis; test: Antibacterial activity against vancomycin-resistant Enterococcus faecalis ATCC 51299 by agar dilution method; type: functional
[15] = test system: Staphylococcus aureus; test: Antibacterial activity against methicillin-sensitive Staphylococcus aureus 09-6 by agar dilution method; type: functional
[16] = test system: Enterococcus faecium; test: Antibacterial activity against vancomycin-resistant Enterococcus faecium 05-8 by agar dilution method; type: functional
[17] = test system: Staphylococcus aureus; test: Antibacterial activity against methicillin-resistant Staphylococcus aureus 09-13 by agar dilution method; type: functional
[18] = test system: Enterococcus faecalis; test: Antibacterial activity against vancomycin-resistant Enterococcus faecalis 09-9 by agar dilution method; type: functional
[19] = test system: Staphylococcus aureus; test: Antibacterial activity against methicillin-resistant Staphylococcus aureus ATCC 33591 by agar dilution method; type: functional
[20] = test system: Pseudomonas aeruginosa; test: Antibacterial activity against Pseudomonas aeruginosa ATCC 27853 by agar dilution method; type: functional
[21] = test system: Acinetobacter calcoaceticus; test: Antibacterial activity against Acinetobacter calcoaceticus ATCC 19606 by agar dilution method; type: functional
[22] = test system: Pseudomonas aeruginosa; test: Antibacterial activity against Pseudomonas aeruginosa 09-14 by agar dilution method; type: functional
[23] = test system: Escherichia coli; test: Antibacterial activity against extended-spectrum beta-lactamase-negative Escherichia coli 09-20 by agar dilution method; type: functional
[24] = test system: Proteus mirabilis; test: Antibacterial activity against Proteus mirabilis 09-1 by agar dilution method; type: functional
[25] = test system: Staphylococcus epidermidis; test: Antibacterial activity against methicillin-sensitive Staphylococcus epidermidis ATCC 12228 by agar dilution method; type: functional
[26] = test system: Salmonella typhi; test: Antibacterial activity against Salmonella typhi H901 by agar dilution method; type: functional, Salmonella enterica subsp. enterica serovar Typhi; settings: Salmonella enterica
[27] = test system: Enterococcus faecalis; test: Antibacterial activity against vancomycin-sensitive Enterococcus faecalis 09-8 by agar dilution method; type: functional
[28] = test system: Escherichia coli; test: Antibacterial activity against extended-spectrum beta-lactamase-positive Escherichia coli 09-1 by agar dilution method; type: functional
[29] = test system: Enterococcus faecium; test: Antibacterial activity against vancomycin-resistant Enterococcus faecium ATCC 700221 by agar dilution method; type: functional
[30] = test system: Morganella morganii; test: Antibacterial activity against Morganella morganii ATCC 25830 by agar dilution method; type: functional
[31] = test system: Enterobacter cloacae; test: Antibacterial activity against Enterobacter cloacae 45301 by agar dilution method; type: functional
[32] = test system: Klebsiella aerogenes; test: Antibacterial activity against Enterobacter aerogenes 45102 by agar dilution method; type: functional
[33] = Cytotoxicity against HEK293T cells after 48 hrs by MTS assay; type: cell-based, HEK-293T; settings: human
[34] = test system: Staphylococcus epidermidis; test: Antibacterial activity against methicillin-resistant Staphylococcus epidermidis 09-3 by agar dilution method; type: functional
[35] = test system: Escherichia coli; test: Antibacterial activity against extended-spectrum beta-lactamase-negative Escherichia coli 1515 by agar dilution method; type: functional
[36] = test system: Klebsiella pneumoniae; test: Antibacterial activity against Klebsiella pneumoniae ATCC BAA-2146 expressing NDM-1 by agar dilution method; type: functional
[37] = test system: Staphylococcus aureus; test: Antibacterial activity against methicillin-sensitive Staphylococcus aureus 15 by agar dilution method; type: functional
[38] = test system: Escherichia coli; test: Antibacterial activity against extended-spectrum beta-lactamase-negative Escherichia coli ATCC 25922 by agar dilution method; type: functional

| SMILES | MIC [1] [µg/mL] | MIC [2] [µg/mL] | MIC [3] [µg/mL] | MIC [4] [µg/mL] | MIC [5] [µg/mL] | MIC [6] [µg/mL] | MIC [7] [µg/mL] | MIC [8] [µg/mL] | MIC [9] [µg/mL] | MIC [10] [µg/mL] | MIC [11] [µg/mL] | MIC [12] [µg/mL] | MIC [13] [µg/mL] | MIC [14] [µg/mL] | MIC [15] [µg/mL] | MIC [16] [µg/mL] | MIC [17] [µg/mL] | MIC [18] [µg/mL] | MIC [19] [µg/mL] | MIC [20] [µg/mL] | further results |
| --- | --- | --- | --- | --- | --- | --- | --- | --- | --- | --- | --- | --- | --- | --- | --- | --- | --- | --- | --- | --- | --- |
| CCCNC(=N)c1ccc2cc(-c3ccc(Oc4ccc(-c5cc6ccc(C(=N)NCCC)cc6[nH]5)cc4)cc3)[nH]c2c1 | 16 (≈ 28.1 µM) | > 128 | > 128 | > 128 | > 128 | > 128 | > 128 | 16 (≈ 28.1 µM) | 8 (≈ 14.1 µM) | 128 (≈ 225 µM) | > 128 | 16 (≈ 28.1 µM) | > 128 | 16 (≈ 28.1 µM) | 16 (≈ 28.1 µM) | 16 (≈ 28.1 µM) | 16 (≈ 28.1 µM) | 16 (≈ 28.1 µM) | 16 (≈ 28.1 µM) | > 128 | MIC [21]: > 128 µg/mL; MIC [22]: > 128 µg/mL; MIC [23]: 128 µg/mL (≈ 225 µM); MIC [24]: > 128 µg/mL; MIC [25]: 8 µg/mL (≈ 14.1 µM); MIC [26]: 128 µg/mL (≈ 225 µM); MIC [27]: 16 µg/mL (≈ 28.1 µM); MIC [28]: > 128 µg/mL; MIC [29]: 2 to 16 µg/mL (≈ 3.52 to 28.1 µM); MIC [30]: 128 µg/mL (≈ 225 µM); MIC [31]: > 128 µg/mL; MIC [32]: > 128 µg/mL; CC50 at 48 h [33]: 26.2 µg/mL (≈ 46.1 µM); MIC [34]: 2 µg/mL (≈ 3.52 µM); MIC [35]: > 128 µg/mL; MIC [36]: > 128 µg/mL; MIC [37]: 8 µg/mL (≈ 14.1 µM); MIC [38]: > 128 µg/mL |
| CCC(CC)NC(=N)c1ccc2cc(-c3ccc(Oc4ccc(-c5cc6ccc(C(=N)NC(CC)CC)cc6[nH]5)cc4)cc3)[nH]c2c1 | 4 (≈ 6.4 µM) | 16 (≈ 25.6 µM) | 16 (≈ 25.6 µM) | 32 (≈ 51.2 µM) | 16 (≈ 25.6 µM) | 16 (≈ 25.6 µM) | 16 (≈ 25.6 µM) | 4 (≈ 6.4 µM) | 2 (≈ 3.2 µM) | 16 (≈ 25.6 µM) | 16 (≈ 25.6 µM) | 2 (≈ 3.2 µM) | 16 (≈ 25.6 µM) | 4 (≈ 6.4 µM) | 2 (≈ 3.2 µM) | 4 (≈ 6.4 µM) | 2 (≈ 3.2 µM) | 8 (≈ 12.8 µM) | 2 (≈ 3.2 µM) | 16 (≈ 25.6 µM) | MIC [21]: 16 µg/mL (≈ 25.6 µM); MIC [22]: 32 µg/mL (≈ 51.2 µM); MIC [23]: 16 µg/mL (≈ 25.6 µM); MIC [24]: 32 µg/mL (≈ 51.2 µM); MIC [25]: 0.5 µg/mL (≈ 0.8 µM); MIC [26]: 16 µg/mL (≈ 25.6 µM); MIC [27]: 2 µg/mL (≈ 3.2 µM); MIC [28]: 16 µg/mL (≈ 25.6 µM); MIC [29]: 2 µg/mL (≈ 3.2 µM); MIC [30]: 8 µg/mL (≈ 12.8 µM); MIC [31]: 16 µg/mL (≈ 25.6 µM); MIC [32]: 16 µg/mL (≈ 25.6 µM); CC50 at 48 h [33]: 25.4 µg/mL (≈ 40.7 µM); MIC [34]: 1 µg/mL (≈ 1.6 µM); MIC [35]: 32 µg/mL (≈ 51.2 µM); MIC [36]: 16 µg/mL (≈ 25.6 µM); MIC [37]: 2 µg/mL (≈ 3.2 µM); MIC [38]: 16 µg/mL (≈ 25.6 µM) |
